What follows are compounds tested against T1, haematopoietic prostaglandin D synthase (H-PGDS) (Homo sapiens, UniProt O60760) (assay: H-PGDS RapidFire high throughput mass spectrometry assay (conversion of PGH2 to PGD2)). Conditions: 10 nM H-PGDS, PGH2 formed in situ by COX-2 from arachidonic acid; read-out: Potency Range (mean pIC50) (converted).
T1 construct: Full length human H-PGDS cDNA (Invitrogen Ultimate ORF 10H13026) was amplified by PCR; 6-His (N); TEV protease cleavage site (N); made in house; host or cells: E. coli BL21 (DE3*), vector pET22b+
T1 sequence (O60760 whole entry): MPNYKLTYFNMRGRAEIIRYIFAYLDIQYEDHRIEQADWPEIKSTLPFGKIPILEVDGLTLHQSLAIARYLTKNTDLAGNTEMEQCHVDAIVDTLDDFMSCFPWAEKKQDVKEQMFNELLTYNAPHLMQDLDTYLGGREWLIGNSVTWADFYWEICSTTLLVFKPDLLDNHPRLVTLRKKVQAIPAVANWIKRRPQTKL
Format: biochemical
Method: H-PGDS RapidFire™ High Throughput Mass Spectrometry Assay
The H-PGDS RapidFire™ mass spectrometric assay monitors conversion of prostaglandin H2 (PGH2) to prostaglandin D2 (PGD2) by haematopoietic prostaglandin D synthase (H-PGDS). In the assay format described here, the substrate (PGH2) is formed in situ by the action of cyclooxygenase-2 on arachidonic acid. This first step is set up to be fast, and generates a burst of PGH2 at ˜10 μM. The PGH2 is then further converted to PGD2 by the H-PGDS enzyme. […] Plates are then read on the RapidFire™ high throughput solid phase extraction system (Agilent) which incorporates a solid phase extraction step coupled to a triple quadrupole mass spectrometer (AB SCIEX). Relative levels of PGD2 and PGF2α, which acts as a surrogate for substrate, are measured and a percent conversion calculated.
Expression and Purification of H-PGDS Protein
Full length human H-PGDS cDNA (Invitrogen Ultimate ORF 10H13026) was amplified by PCR with the addition of a 5′ 6-His tag and TEV protease cleavage site. The PCR product was digested with Ndel and Xhol and ligated into pET22b+ (Merck Novagen®). Expression was carried out in E. coli strain BL21 (DE3*) using auto-induction Overnight Express™ Instant TB medium (Merck Novagen®) supplemented with 1% glycerol. The culture was first grown at 37° C. and the temperature was reduced to 25° C. when OD600 reached 2.0. Cells were harvested by centrifugation after a further 18 hr. 10 g of E. coli cell pellet was suspended to a total volume of 80 mL in lysis buffer (20 mM Tris-Cl pH 7.5, 300 mM NaCl, 20 mM imidazole, 5 mM β-mercaptoethanol, 10% glycerol). 1 mg/mL protease inhibitors (Protease Inhibitor Cocktail Set III, Merck Calbiochem®) and 1 mg/mL lysozyme were added to the cell suspension. The suspension was then sonicated for 5 min (UltraSonic Processor VCX 750, Cole-Parmer Instrument Co.) with a micro probe (50% amplitude, 10 sec on/off) and then centrifuged at 100,000 g for 90 min (at 4° C.). The supernatant was loaded onto a Ni-NTA HiTrap column (5 mL, GE Healthcare, pre-equilibrated in lysis buffer). The column was washed with 10 column volumes of lysis buffer and eluted with lysis buffer containing 500 mM imidazole. The pooled protein peak fractions were concentrated using a 10 kDa centrifugal filter at 3500 g and 4° C. (Amicon Ultra-15 centrifugal filter unit with Ultracel-10 membrane from Millipore). Further purification of the concentrated protein was carried out using gel filtration chromatography on a HiLoad 26/600 Superdex 75 preparative grade column (GE Healthcare Life Sciences) using 50 mM Tris pH 7.5, 50 mM NaCl, 1 mM dithiothreitol, 1 mM MgCl2. Fractions containing the protein were pooled, concentrated as described above, and stored at −80° C.
Expression and Purification of Cyclooxygenase-2 (COX-2) Protein
The full length human COX-2 gene (accession number L15326) was amplified by PCR to generate an EcoRI-HindIII fragment containing an in-frame FLAG tag. This was subcloned into pFastBac 1 (Invitrogen). The COX2 FLAG plasmid was recombined into the baculovirus genome according to the BAC-to-BAC protocol described by Invitrogen. Transfection into Spodoptera frugiperda (Sf9) insect cells was performed using Cellfectin (Invitrogen), according to the manufacturer's protocol. […] Cells were harvested using a continuous feed centrifuge run at 2500 g at a rate of approximately 2 L/min with cooling. The resultant cell slurry was re-centrifuged in pots (2500 g, 20 min, 4° C.) and the cell paste was stored at −80° C. […] The suspension was sonicated in 500 mL batches for 8×5 seconds at 10 u amplitude with the medium tip of an MSE probe sonicator and subsequently incubated at 4° C. for 90 min with gentle stirring. The lysate was centrifuged at 12000 rpm for 45 min at 4° C. in a Sorvall SLA1500 rotor. The supernatant (1400 mL) was added to 420 mL of 20 mM Tris-Cl pH 7.4, 150 mM NaCl, 0.1 mM EDTA to reduce the concentration of n-octyl-6-D-glucopyranoside to 1% w/v.
`COc1ccc(F)cc1O[C@H]1C[C@H](C(=O)NC2CCN(c3cc(C#N)ccn3)CC2)C1` [Example 155, (trans)-N-(1-(4-Cyanopyridin-2-yl)piperidin-4-yl)-3-(5-fluoro-2-methoxyphenoxy)cyclobutanecarboxamide] showed an IC50 of 10 to 79.4 nM.
With `CC(C)(O)[C@H]1CC[C@H](NC(=O)N2CC(Oc3cccc4ccoc34)C2)CC1` [Example 260, 3-(Benzofuran-7-yloxy)-N-((trans)-4-(2-hydroxypropan-2-yl)cyclohexyl)azetidine-1-carboxamide] the IC50 was 10 to 79.4 nM.
`O=C(NC1CN(c2cnccn2)C1)[C@H]1C[C@H](Oc2cc(F)cc3scnc23)C1` [Example 235, (trans)-3-((6-Fluorobenzo[d]thiazol-4-yl)oxy)-N-(1-(pyrazin-2-yl)azetidin-3-yl)cyclobutanecarboxamide] was tested, and the IC50 was 10 to 79.4 nM.
With `CC(C)(O)[C@H]1CC[C@H](NC(=O)N2CC(Oc3cccc4sncc34)C2)CC1` [Example 299, 3-(Benzo[d]isothiazol-4-yloxy)-N-((trans)-4-(2-hydroxypropan-2-yl)cyclohexyl)azetidine-1-carboxamide] the IC50 was 100 to 1000 nM.
Work on `COc1ccc(F)cc1O[C@H]1C[C@H](C(=O)Nc2nc(C3CC3)cs2)C1` [Example 167, (trans)-N-(4-Cyclopropylthiazol-2-yl)-3-(5-fluoro-2-methoxyphenoxy)cyclobutanecarboxamide] yielded an IC50 of less than 10 nM.
`CC(N[C@H]1CC[C@H](NC(=O)[C@H]2C[C@H](Oc3cc(F)ccc3OC(F)F)C2)CC1)C(F)F` (mixture of isomers) [Example 23, Racemic (trans)-3-(2-(Difluoromethoxy)-5-fluorophenoxy)-N-((trans)-4-((1,1-difluoropropan-2-yl)amino)cyclohexyl)cyclobutanecarboxamide] gave an IC50 of 10 to 79.4 nM.
Work on `CCc1cccc(O[C@H]2C[C@H](C(=O)N[C@H]3CC[C@H](C(C)(C)O)CC3)C2)c1` [Example 285, (trans)-3-(3-Ethylphenoxy)-N-((trans)-4-(2-hydroxypropan-2-yl)cyclohexyl)cyclobutanecarboxamide] yielded an IC50 of 100 to 1000 nM.
Compound `Cc1ccc(CNC(=O)[C@H]2C[C@H](Oc3cccc4scnc34)C2)o1` [Example 255, (trans)-3-(Benzo[d]thiazol-4-yloxy)-N-((5-methylfuran-2-yl)methyl)cyclobutanecarboxamide] has an IC50 of 100 to 1000 nM.
Compound `CC(=O)c1csc(NC(=O)N2CC(Oc3cccc4scnc34)C2)n1` [Example 62, N-(4-Acetylthiazol-2-yl)-3-(benzo[d]thiazol-4-yloxy)azetidine-1-carboxamide] has an IC50 of 10 to 79.4 nM.
For `CS(=O)(=O)c1ccc(NC(=O)N2CC(Oc3cccc4scnc34)C2)cc1` [Example 306, 3-(Benzo[d]thiazol-4-yloxy)-N-(4-(methylsulfonyl)phenyl)azetidine-1-carboxamide], the IC50 was 10 to 79.4 nM.
`COc1cncc(NC(=O)N2CC(Oc3cccc4scnc34)C2)c1` [Example 323, 3-(Benzo[d]thiazol-4-yloxy)-N-(5-methoxypyridin-3-yl)azetidine-1-carboxamide] gave an IC50 of 10 to 79.4 nM.
`CC(=O)c1csc(NC(=O)[C@H]2C[C@H](Oc3cccc4c(Br)coc34)C2)n1` [Example 271, (trans)-N-(4-Acetylthiazol-2-yl)-3-((3-bromobenzofuran-7-yl)oxy)cyclobutanecarboxamide] showed an IC50 of 10 to 79.4 nM.
`Cc1nnc(NC(=O)[C@H]2C[C@H](Oc3cccc4scnc34)C2)o1` [Example 79, (trans)-3-(Benzo[d]thiazol-4-yloxy)-N-(5-methyl-1,3,4-oxadiazol-2-yl)cyclobutanecarboxamide] was tested, and the IC50 was 100 to 1000 nM.
In the case of `O=C1NCC[C@@H]1NC(=O)N1CC(Oc2cccc3scnc23)C1` [Example 99, (S)-3-(Benzo[d]thiazol-4-yloxy)-N-(2-oxopyrrolidin-3-yl)azetidine-1-carboxamide], the IC50 was 100 to 1000 nM.
Work on `O=C(N[C@H]1CC[C@H](OCC(O)C2CC2)CC1)[C@H]1C[C@H](Oc2cc(F)ccc2OC(F)F)C1` (mixture of isomers) [Example 9, Racemic (trans)-N-((trans)-4-(2-Cyclopropyl-2-hydroxyethoxy)cyclohexyl)-3-(2-(difluoromethoxy)-5-fluorophenoxy)cyclobutanecarboxamide] yielded an IC50 of 10 to 79.4 nM.
In the case of `CC(C)(O)[C@H]1CC[C@H](NC(=O)[C@H]2C[C@H](Oc3cccc(Cl)c3)C2)CC1` [Example 288, (trans)-3-(3-Chlorophenoxy)-N-((trans)-4-(2-hydroxypropan-2-yl)cyclohexyl)cyclobutanecarboxamide], the IC50 was 100 to 1000 nM.
With `O=C(Nc1nc(C2CC2)cs1)[C@H]1C[C@H](Oc2cccc3scnc23)C1` [Example 138, (trans)-3-(Benzo[d]thiazol-4-yloxy)-N-(4-cyclopropylthiazol-2-yl)cyclobutanecarboxamide] the IC50 was less than 10 nM.
Work on `CC(C)(O)C12CC(NC(=O)[C@H]3C[C@H](Oc4cccc5scnc45)C3)(C1)C2` [Example 318, (trans)-3-(Benzo[d]thiazol-4-yloxy)-N-(3-(2-hydroxypropan-2-yl)bicyclo[1.1.1]pentan-1-yl)cyclobutane-1-carboxamide] yielded an IC50 of 10 to 79.4 nM.
`CC(C)(O)[C@H]1CC[C@H](NC(=O)N2CC(Oc3cccc4cccnc34)C2)CC1` [Example 185, N-((trans)-4-(2-Hydroxypropan-2-yl)cyclohexyl)-3-(quinolin-8-yloxy)azetidine-1-carboxamide] was tested, and the IC50 was 10 to 79.4 nM.
Compound `CC(=O)c1csc(NC(=O)[C@H]2C[C@H](Oc3cc(F)ccc3OC(F)F)C2)n1` [Example 35, (trans)-N-(4-Acetylthiazol-2-yl)-3-(2-(difluoromethoxy)-5-fluorophenoxy)cyclobutanecarboxamide] has an IC50 of less than 10 nM.
Compound `O=C(NC1CN(c2ncc(CO)cn2)C1)N1CC(Oc2cc(F)cc3scnc23)C1` [Example 113, 3-((6-Fluorobenzo[d]thiazol-4-yl)oxy)-N-(1-(5-(hydroxymethyl)pyrimidin-2-yl)azetidin-3-yl)azetidine-1-carboxamide] has an IC50 of 10 to 79.4 nM.
`CC(C)(C)c1nnc(NC(=O)[C@H]2C[C@H](Oc3cc(F)ccc3OC(F)F)C2)o1` [Example 16, (trans)-N-(5-(tert-Butyl)-1,3,4-oxadiazol-2-yl)-3-(2-(difluoromethoxy)-5-fluorophenoxy)cyclobutanecarboxamide] showed an IC50 of 10 to 79.4 nM.
Compound `COc1ccc(F)cc1O[C@H]1C[C@H](C(=O)Nc2ncc(C(C)=O)s2)C1` [Example 164, (trans)-N-(5-Acetylthiazol-2-yl)-3-(5-fluoro-2-methoxyphenoxy)cyclobutanecarboxamide] has an IC50 of less than 10 nM.
`Cn1nccc1NC(=O)[C@H]1C[C@H](Oc2cccc3scnc23)C1` [Example 249, (trans)-3-(Benzo[d]thiazol-4-yloxy)-N-(1-methyl-1H-pyrazol-5-yl)cyclobutanecarboxamide] showed an IC50 of 100 to 1000 nM.
With `Cc1ccc(N2CC(NC(=O)[C@H]3C[C@H](Oc4cc(F)cc5scnc45)C3)C2)[n+]([O-])c1` [Example 111, 2-(3-((trans)-3-((6-Fluorobenzo[d]thiazol-4-yl)oxy)cyclobutanecarboxamido)azetidin-1-yl)-5-methylpyridine 1-oxide] the IC50 was 100 to 1000 nM.
With `CS(=O)(=O)c1ccc(NC(=O)N2CC(Oc3cccc4scnc34)C2)nc1` [Example 311, 3-(Benzo[d]thiazol-4-yloxy)-N-(5-(methylsulfonyl)pyridin-2-yl)azetidine-1-carboxamide] the IC50 was 10 to 79.4 nM.

From patent US11053234B2 (GlaxoSmithKline Intellectual Property Development Limited, priority 2016, dated 2021)
